From patent US20230265116A1, “DEGRADATION OF (EGFR) BY CONJUGATION OF EGFR INHIBITORS WITH E3 LIGASE LIGAND AND METHODS OF USE” (BEIGENE, LTD., priority 2020, published 2023) come the findings set out here.

Test [1] has as its system EGFR Del19/T790M/C797S (BaF3-DTC cells). The test can be described thus: EGFR degradation HTRF assay, BaF3-DTC cells. Particulars: for DTC Dmax (%): maximum percentage of degradation. Type of test: cell-based. The procedure, abridged: (§1)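 Cells treated 16 h at 37 °C, 5% CO2 in medium with 0.2% DMSO; top final concentration 10 uM, 5-fold dilution, 8 doses. Lysates read by HTRF (665/620 nm); degradation % versus DMSO high control, DC50 from four-parameter fit, Dmax as maximal degradation.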

Test [2] addresses T1, EGFR L858R/T790M/C797S (BaF3-LTC cells) (Homo sapiens, UniProt P00533, C797S/L858R/T790M).
T1 construct: expressed in transfected cells; host or cells: BaF3
The test can be described thus: EGFR degradation HTRF assay, BaF3-LTC cells. The test is classed as cell-based. As to conditions: BaF3-LTC, 16h treatment; for Dmax: maximum percentage of degradation, read-out: LTC Dmax (%); for DC50: read-out: LTC DC50. The procedure, abridged: as §1

The mark [3] stands for this setting: 16h treatment, read-out: DTC DC50.

Where two headings read alike, the source gives them in different places.

T1 sequence (P00533 25-1210 T790M/C797S/L858R): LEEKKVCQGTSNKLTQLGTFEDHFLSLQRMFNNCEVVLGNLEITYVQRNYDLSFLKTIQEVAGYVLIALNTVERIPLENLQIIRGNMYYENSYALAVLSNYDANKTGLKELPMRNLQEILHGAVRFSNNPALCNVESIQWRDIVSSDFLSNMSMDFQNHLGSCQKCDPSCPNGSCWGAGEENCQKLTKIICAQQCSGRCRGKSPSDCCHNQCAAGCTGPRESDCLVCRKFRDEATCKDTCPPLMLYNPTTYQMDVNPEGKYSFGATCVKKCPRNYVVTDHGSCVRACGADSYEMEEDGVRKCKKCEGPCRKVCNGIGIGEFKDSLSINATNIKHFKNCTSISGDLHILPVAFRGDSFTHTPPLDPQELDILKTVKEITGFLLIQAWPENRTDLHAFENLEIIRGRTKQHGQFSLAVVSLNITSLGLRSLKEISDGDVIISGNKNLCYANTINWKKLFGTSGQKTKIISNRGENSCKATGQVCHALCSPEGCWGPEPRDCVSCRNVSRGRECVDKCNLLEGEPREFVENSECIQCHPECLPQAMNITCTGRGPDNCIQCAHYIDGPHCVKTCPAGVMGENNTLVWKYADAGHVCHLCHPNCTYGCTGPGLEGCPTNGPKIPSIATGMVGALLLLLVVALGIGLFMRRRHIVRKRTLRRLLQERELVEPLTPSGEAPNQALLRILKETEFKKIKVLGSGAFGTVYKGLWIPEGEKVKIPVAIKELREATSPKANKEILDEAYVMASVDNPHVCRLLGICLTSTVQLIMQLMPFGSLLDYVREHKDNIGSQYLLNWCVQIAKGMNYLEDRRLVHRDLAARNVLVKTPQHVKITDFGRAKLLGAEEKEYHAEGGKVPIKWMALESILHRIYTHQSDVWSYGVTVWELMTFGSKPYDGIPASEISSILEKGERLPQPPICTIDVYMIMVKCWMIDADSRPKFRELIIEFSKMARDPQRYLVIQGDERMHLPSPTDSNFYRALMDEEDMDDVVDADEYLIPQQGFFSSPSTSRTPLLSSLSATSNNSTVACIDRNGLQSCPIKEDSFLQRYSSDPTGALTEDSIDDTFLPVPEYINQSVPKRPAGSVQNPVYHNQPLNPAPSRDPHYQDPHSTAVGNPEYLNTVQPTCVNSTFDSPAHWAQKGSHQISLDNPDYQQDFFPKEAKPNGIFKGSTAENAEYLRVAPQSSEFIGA

Consider `CCc1cc(Nc2ncc(Br)c(Nc3ccc4c(=O)n(C)ncc4c3P(C)(C)=O)n2)c(OC)cc1N1CCC(N2CCN(CCc3cc(F)c(C4CCC(=O)NC4=O)c(F)c3)CC2)CC1` (stereo not shown) [Example 431, 3-(4-(2-(4-(1-(4-((5-bromo-4-((5-(dimethylphosphoryl)-2-methyl-1-oxo-1,2-dihydrophthalazin-6-yl)amino)pyrimidin-2-yl)amino)-2-ethyl-5-methoxyphenyl)piperidin-4-yl)piperazin-1-yl)ethyl)-2,6-difluorophenyl)piperidine-2,6-dione], for which the “DTC Dmax (%)” value in test [1] (16h treatment) is recorded as 97.96%. Further, the DC50 in test [1] (setting [3]) worked out at 2.7 nM. Further, in test [2], the Dmax worked out at 91% and the DC50 amounted to 12.4 nM.

As for `CCc1cc(Nc2ncc(Br)c(Nc3ccc4nc(C)ccc4c3P(C)(C)=O)n2)c(OC)cc1N1CCC(N2CCN(C(=O)CNc3cc(F)c(C4CCC(=O)NC4=O)c(F)c3)CC2)CC1` (stereo not shown) [Example 432, 3-(4-((2-(4-(1-(4-((5-bromo-4-((5-(dimethylphosphoryl)-2-methylquinolin-6-yl)amino)pyrimidin-2-yl)amino)-2-ethyl-5-methoxyphenyl)piperidin-4-yl)piperazin-1-yl)-2-oxoethyl)amino)-2,6-difluorophenyl)piperidine-2,6-dione], the “DTC Dmax (%)” value in test [1] (16h treatment) turned out to be 94.91%. Further, the DC50 in test [1] (setting [3]) is 1.19 nM; in test [2], 4.24 nM. In addition, the Dmax in test [2] was 93%.

As to `CCc1cc(Nc2ncc(Br)c(Nc3ccc4nc(C)ccc4c3P(C)(C)=O)n2)c(OC)cc1N1CCC(N2CCN(CCN(C)c3cc(F)c(C4CCC(=O)NC4=O)c(F)c3)CC2)CC1` (stereo not shown) [Example 433, 3-(4-((2-(4-(1-(4-((5-bromo-4-((5-(dimethylphosphoryl)-2-methylquinolin-6-yl)amino)pyrimidin-2-yl)amino)-2-ethyl-5-methoxyphenyl)piperidin-4-yl)piperazin-1-yl)ethyl)(methyl)amino)-2,6-difluorophenyl)piperidine-2,6-dione], the “DTC Dmax (%)” value in test [1] (16h treatment) came out at 93.56%. Moreover, in test [1] (setting [3]), the DC50 worked out at 4.29 nM. Besides, in test [2], the Dmax stood at 90.8% and the half-maximal degradation concentration (DC50) is 9.35 nM.

In the case of `CCc1cc(Nc2ncc(Br)c(Nc3ccc4nc(C(F)(F)F)ccc4c3P(C)(C)=O)n2)c(OC)cc1N1CCC(N2CCN(C(=O)C3CN(c4ccc5c(c4)CN(C4CCC(=O)NC4=O)C5=O)C3)CC2)CC1` (stereo not shown) [Example 434, 3-(5-(3-(4-(1-(4-((5-bromo-4-((5-(dimethylphosphoryl)-2-(trifluoromethyl)quinolin-6-yl)amino)pyrimidin-2-yl)amino)-2-ethyl-5-methoxyphenyl)piperidin-4-yl)piperazine-1-carbonyl)azetidin-1-yl)-1-oxoisoindolin-2-yl)piperidine-2,6-dione], in test [1] (16h treatment), the “DTC Dmax (%)” value came out at 85.05%. Further, the DC50 in test [1] (setting [3]) is 4.43 nM; in test [2] it was 9.32 nM. In addition, the greatest degradation seen (Dmax) in test [2] came to 88.2%.

For `CCc1cc(Nc2ncc(Br)c(Nc3ccc4nc(C(F)(F)F)ccc4c3P(C)(C)=O)n2)c(OC)cc1N1CCC(N2CCN(CCc3cc(F)c(C4CCC(=O)NC4=O)c(F)c3)CC2)CC1` (stereo not shown) [Example 435, 3-(4-(2-(4-(1-(4-((5-bromo-4-((5-(dimethylphosphoryl)-2-(trifluoromethyl)quinolin-6-yl)amino)pyrimidin-2-yl)amino)-2-ethyl-5-methoxyphenyl)piperidin-4-yl)piperazin-1-yl)ethyl)-2,6-difluorophenyl)piperidine-2,6-dione], the “DTC Dmax (%)” value in test [1] (16h treatment) was found to be 92.59%. The DC50 in test [1] (setting [3]) was 7.48 nM. Also, in test [2], the Dmax was determined as 89.9% and the DC50 is 23.9 nM.

Consider `CCc1cc(Nc2ncc(Br)c(Nc3ccc4nc(C)ccc4c3P(C)(C)=O)n2)c(OC)cc1N1CCC(N2CCN(C(=O)C3CCN(c4ccc5c(c4)C(C)(C)C(=O)N5C4CCC(=O)NC4=O)CC3)CC2)CC1` (stereo not shown) [Example 436, 3-(5-(4-(4-(1-(4-((5-bromo-4-((5-(dimethylphosphoryl)-2-methylquinolin-6-yl)amino)pyrimidin-2-yl)amino)-2-ethyl-5-methoxyphenyl)piperidin-4-yl)piperazine-1-carbonyl)piperidin-1-yl)-3,3-dimethyl-2-oxoindolin-1-yl)piperidine-2,6-dione], for which the “DTC Dmax (%)” value in test [1] (16h treatment) is 89.14%. In test [1] (read-out: DTC DC50, 16h treatment), the DC50 worked out at 2.38 nM. Further, in test [2], the Dmax came to 92.5% and the DC50 amounted to 3.2 nM.

`CCc1cc(Nc2ncc(Br)c(Nc3ccc4nc(C(F)(F)F)ccc4c3P(C)(C)=O)n2)c(OC)cc1N1CCC(N2CCN(CCC3CCN(c4cc(F)c(C5CCC(=O)NC5=O)c(F)c4)CC3)CC2)CC1` (stereo not shown) [Example 437, 3-(4-(4-(2-(4-(1-(4-((5-bromo-4-((5-(dimethylphosphoryl)-2-(trifluoromethyl)quinolin-6-yl)amino)pyrimidin-2-yl)amino)-2-ethyl-5-methoxyphenyl)piperidin-4-yl)piperazin-1-yl)ethyl)piperidin-1-yl)-2,6-difluorophenyl)piperdine-2,6-dione]: in test [1] (16h treatment), the “DTC Dmax (%)” value was found to be 83.88%. For the same compound, in test [1] (setting [3]), the DC50 worked out at 14.9 nM. In addition, in test [2], the Dmax turned out to be 91.2% and the DC50 came to 28 nM.

`CCc1cc(Nc2ncc(Br)c(Nc3ccc4ncn(C)c(=O)c4c3P(C)(C)=O)n2)c(OC)cc1N1CCC(N2CCN(CCc3cccc4c3n(C)c(=O)n4C3CCC(=O)NC3=O)CC2)CC1` (stereo not shown) [Example 698, 3-(4-(2-(4-(1-(4-((5-bromo-4-((5-(dimethylphosphoryl)-3-methyl-4-oxo-3,4-dihydroquinazolin-6-yl)amino)pyrimidin-2-yl)amino)-2-ethyl-5-methoxyphenyl)piperidin-4-yl)piperazin-1-yl)ethyl)-3-methyl-2-oxo-2,3-dihydro-1H-benzo[d]imidazol-1-yl)piperidine-2,6-dione]: the “DTC Dmax (%)” value in test [1] (16h treatment) is 94.26%. In addition, the DC50 in test [1] (setting [3]) was 0.601 nM; in test [2] it was 4.28 nM. Also, the Dmax in test [2] was 93.6%.

Regarding `CCc1cc(Nc2ncc(Br)c(Nc3ccc4nc(C)ccc4c3P(C)(C)=O)n2)c(OC)cc1N1CCC(N2CCN(C(=O)C34CCC(Nc5cc(F)c(C6CCC(=O)NC6=O)c(F)c5)(CC3)C4)CC2)CC1` (stereo not shown) [Example 699, 3-(4-((4-(4-(1-(4-((5-bromo-4-((5-(dimethylphosphoryl)-2-methylquinolin-6-yl)amino)pyrimidin-2-yl)amino)-2-ethyl-5-methoxyphenyl)piperidin-4-yl)piperazine-1-carbonyl)bicyclo[2.2.1]heptan-1-yl)amino)-2,6-difluorophenyl)piperidine-2,6-dione], the “DTC Dmax (%)” value in test [1] (16h treatment) was 85.08%. In test [1] (setting [3]), the DC50 was determined as 3.04 nM. Moreover, in test [2], the Dmax amounted to 89.2% and the DC50 was 6.06 nM.

For the compound `CCc1cc(Nc2ncc(Br)c(Nc3ccc4nc(C)ccc4c3P(C)(C)=O)n2)c(OC)cc1N1CCC(N2CCC(C(=O)N3CCC(c4cc(F)c(C5CCC(=O)NC5=O)c(F)c4)CC3)CC2)CC1` (stereo not shown) [Example 700, 3-(4-(1-(1′-(4-((5-bromo-4-((5-(dimethylphosphoryl)-2-methylquinolin-6-yl)amino)pyrimidin-2-yl)amino)-2-ethyl-5-methoxyphenyl)-[1,4′-bipiperidine]-4-carbonyl)piperidin-4-yl)-2,6-difluorophenyl)piperidine-2,6-dione], the “DTC Dmax (%)” value in test [1] (16h treatment) was found to be 83.8%. Besides, the DC50 in test [1] (setting [3]) amounted to 6.49 nM. In test [2], the Dmax is 92.4% and the 50% degradation concentration (DC50) worked out at 13.1 nM.
